Assays:
[1] = system: MCP-1 protein production by LPS-stimulated MonoMac6 cells; assay: Measurement of the production of MCP-1 in a human monocyte line (ELISA); assay type: cell-based; settings: 1 h pre-incubation, LPS 100 ng/ml 20 h, MonoMac6 supernatant; for inhibition at 150 µM: MONO-MAC-6, compound 150 μM (maximum soluble concentration); for inhibition at 30 µM: MONO-MAC-6, compound 30 μM (maximum soluble concentration); for inhibition at 300 µM: MONO-MAC-6, compound 300 μM (maximum soluble concentration)
Procedure: (§1) The capacity of the compounds to inhibit the expression of the protein MCP-1 by lipopolysaccharide (LPS)-stimulated MonoMac6 cells was evaluated. The cells were placed in 96-well plates at a concentration of 50 000 cells/well. The compounds were tested at the maximum soluble concentration given in Table 2 (in the range 30-300 μM) and incubated for 1 hour. The cells were then stimulated with LPS (100 ng/ml) for 20 hours.
The amount of MCP-1 produced was measured in the supernatants, suitably diluted with buffer, by means of an immunoenzymatic test (ELISA) using a commercial kit (ELISA MCP-1/JE, R&D Systems).

[2] = system: p40 expression by LPS-stimulated MonoMac6 cells; assay: Analysis of the gene expression of p40 in a human monocyte line (real-time RT-PCR); assay type: cell-based; settings: 1 h pre-incubation, LPS 100 ng/ml 4 h, read-out: % inhibition of p40 expression (mRNA); for inhibition at 300 µM: MONO-MAC-6, compound 300 μM (maximum soluble concentration)
Procedure: as §1, with “p40” for “the protein MCP-1”, “4” for “2”, “4” for “20”
(§2) The total RNA was extracted from the cell pellet using the RNeasy mini kit (Qiagen), reverse-transcribed with the TaqMan Reverse transcription reagents synthesis kit (Applied Biosystems) and the cDNA obtained was used for the real-time PCR reaction. The amplification was obtained in 96-well plates using the ABI Prism 7000 sequence detection system (Applied Biosystems), by applying the following temperature profile: 50° C. for 2 minutes, 95° C. for 10 minutes and 45 cycles at 95° C. for 15 seconds and 60° C. for 1 minute. […] A set of primers and probe for β-actin was used in separate wells as an internal control of the samples for the purposes of normalization. Once the reaction had taken place, the fluorescence data were analysed using the ABI Prism 7000 SDS software, by calculating the threshold cycle (Ct) for each sample and subsequently performing a relative quantification via the ΔΔCt method.

[3] = system: CX3CR1 expression by LPS-stimulated MonoMac6 cells; assay: Analysis of the gene expression of CX3CR1 in a human monocyte line (real-time RT-PCR); assay type: cell-based; settings: 1 h pre-incubation, LPS 100 ng/ml 20 h, read-out: % inhibition of CX3CR1 expression (mRNA); for inhibition at 150 µM: MONO-MAC-6, compound 150 μM (maximum soluble concentration); for inhibition at 300 µM: MONO-MAC-6, compound 300 μM (maximum soluble concentration)
Procedure: The capacity of the compounds to inhibit the expression of CX3CR1 by lipopolysaccharide (LPS)-stimulated MonoMac6 cells was evaluated. The cells were placed in 96-well plates at a concentration of 50 000 cells/well. […] The cells were then stimulated with LPS (100 ng/ml) for 20 hours.
as §2

[4] = system: MCP-1 expression by LPS-stimulated MonoMac6 cells; assay: Analysis of the gene expression of MCP-1 in a human monocyte line (real-time RT-PCR); assay type: cell-based; settings: 1 h pre-incubation, LPS 100 ng/ml 4 h
Procedure: as §1, with “of” for “of the protein”, “1” for “2”, “4” for “20”
The total RNA was extracted from the cell pellet using the RNeasy mini kit (Qiagen), reverse-transcribed with the TaqMan Reverse transcription reagents synthesis kit (Applied Biosystems) and the cDNA obtained was used for the real-time PCR reaction. The amplification was obtained in 96-well plates using the ABI Prism 7000 sequence detection system (Applied Biosystems), by applying the following temperature profile: 50° C. for 2 minutes, 95° C. for 10 minutes and 45 cycles at 95° C. for 15 seconds and 60° C. for 1 minute. For the amplification, a set of primers and probe specific for human MCP-1 was used (Applied Biosystems, RefSeq NM_002982.3). A set of primers and probe for β-actin was used in separate wells as an internal control of the samples for the purposes of normalization. Once the reaction had taken place, the fluorescence data were analysed using the ABI Prism 7000 SDS software, by calculating the threshold cycle (Ct) for each sample and subsequently performing a relative quantification via the ΔΔCt method.

[5] = compound 150 μM (maximum soluble concentration)
[6] = compound 300 μM (maximum soluble concentration)
[7] = MONO-MAC-6, compound 30 μM (maximum soluble concentration)

melting point [°C] | SMILES | inhibition at 150 µM [1] [%] | inhibition at 300 µM [1] [%] | inhibition at 300 µM [2] [%] | inhibition at 300 µM [3] [%] | % inhibition of MCP-1 expression (mRNA) [4, 6] [%] | further results
 | CC(C)(OCc1nn(C2CCCc3ccccc32)c2ccccc12)C(=O)O (centres unmarked) [Compound 8, 2-methyl-2-{[1-(1,2,3,4-tetrahydronaphth-1-yl)-1H-indazol-3-yl]methoxy}-propanoic acid] | 77 |  |  |  |  | 
168 to 170 | CC(C)(OCc1nn(Cc2ccccc2)c2ccc(Br)cc12)C(=O)O [Compound 23, 2-[(1-benzyl-5-bromo-1H-indazol-3-yl)methoxy]-2-methylpropanoic acid] |  |  |  |  |  | 
 | O=C(O)COCc1nn(Cc2ccc(Cl)cc2Cl)c2ccccc12 [Compound 18, {[1-(2,4-dichlorobenzyl)-1H-indazol-3-yl]methoxy}acetic acid] |  |  |  |  |  | inhibition at 30 µM [1]: 35%
 | CC(C)(OCc1nn(Cc2ccc(Cl)cc2)c2ccccc12)C(=O)O [Compound 4, 2-{[1-(4-chlorobenzyl)-1H-indazol-3-yl]methoxy}-2-methylpropanoic acid] | 54 |  |  |  |  | inhibition at 150 µM ([2]; MONO-MAC-6, compound 150 μM (maximum soluble concentration)): 48%; inhibition at 150 µM [3]: 87%; % inhibition of MCP-1 expression (mRNA) [4, 5]: 26%
 | O=C(O)COCc1nn(Cc2ccc(F)cc2)c2ccccc12 [Compound 17, {[1-(4-fluorobenzyl)-1H-indazol-3-yl]methoxy}acetic acid] |  | 39 | 61 | 90 | 26 | 
128 to 130 | COc1ccc2c(c1)c(COC(C)(C)C(=O)O)nn2Cc1ccccc1 [Compound 2, 2-[(1-benzyl-5-methoxy-1H-indazol-3-yl)methoxy]-2-methylpropanoic acid] |  | 66 |  |  |  | 
 | CC(C)(OCc1nn(Cc2ccc(Cl)c(Cl)c2)c2ccccc12)C(=O)O [Compound 7, 2-{[1-(3,4-dichlorobenzyl)-1H-indazol-3-yl]methoxy}-2-methylpropanoic acid] |  |  |  |  |  | inhibition at 30 µM [1]: 29%; inhibition at 30 µM [2, 7]: 47%; inhibition at 30 µM [3, 7]: 85%
145 to 147 | CC(C)(OCc1nn(Cc2ccccc2)c2ccc(Cl)cc12)C(=O)O [Compound 5, 2-[(1-benzyl-5-chloro-1H-indazol-3-yl)methoxy]-2-methylpropanoic acid] | 82 |  |  |  |  | 
 | CC(C)(OCc1nn(C(=O)c2ccccc2)c2ccccc12)C(=O)O [Compound 3, 2-[(1-benzoyl-1H-indazol-3-yl)methoxy]-2-methylpropanoic acid] |  | 83 | 64 | 99 | 65 | 
169 to 171 | COc1ccc(Cn2nc(COC(C)(C)C(=O)O)c3ccccc32)cc1 [Compound 1, 2-{[1-(4-methoxybenzyl)-1H-indazol-3-yl]methoxy}-2-methylpropanoic acid] |  | 80 | 50 | 97 | 57 | 
94 to 95 | CC(C)(OCCOCc1nn(Cc2ccccc2)c2ccccc12)C(=O)O [Compound 20, 2-{2-[(1-benzyl-1H-indazol-3-yl)methoxy]ethoxy}-2-methylpropanoic acid] |  | 73 | 58 | 89 | 29 | 
 | O=C(O)COCCOCc1nn(Cc2ccccc2)c2ccccc12 [Compound 19, {2-[(1-benzyl-1H-indazol-3-yl)methoxy]ethoxy}acetic acid] |  | 63 |  |  |  | 
 | CC(C)(OCCCOCc1nn(Cc2ccccc2)c2ccccc12)C(=O)O [Compound 21, 2-{3-[(1-benzyl-1H-indazol-3-yl)methoxy]propoxy}-2-methylpropanoic acid] |  | 88 | 50 | 97 | 61 | 
 | CC(C)(OCc1nn(Cc2ccccc2)c2ccc([N+](=O)[O-])cc12)C(=O)O [Compound 6, 2-[(1-benzyl-5-nitro-1H-indazol-3-yl)methoxy]-2-methylpropanoic acid] | 100 |  |  |  |  | inhibition at 150 µM [3]: 98%; % inhibition of MCP-1 expression (mRNA) [4, 5]: 95%
 | Cc1ccc(Cn2nc(COC(C)(C)C(=O)O)c3ccccc32)cc1 [Compound 22, 2-{[1-(4-methylbenzyl)-1H-indazol-3-yl]methoxy}-2-methylpropanoic acid] | 37 |  |  |  |  | 

— US8835481B2, “1-benzyl-3-hydroxymethylindazole derivatives and use thereof in the treatment of diseases based on the expression of MCP-1, CX3CR1 and P40” (Aziende Chimiche Riunite Angelini Francesco A.C.R.A.F. …, priority 2008, dated 2014)
